Source: patent US8999964B2, “TGR5 modulators and methods of use thereof” (Intercept Pharmaceuticals, Inc., priority 2008, dated 2015)
Counter-ions that a name gives are not always drawn.

Tests used:
[1] = molecular target: T1, PXR (Homo sapiens, UniProt O75469); test: PXR ligands competition assay (binding assay); conditions: Table 6
T1 sequence (O75469 1-434): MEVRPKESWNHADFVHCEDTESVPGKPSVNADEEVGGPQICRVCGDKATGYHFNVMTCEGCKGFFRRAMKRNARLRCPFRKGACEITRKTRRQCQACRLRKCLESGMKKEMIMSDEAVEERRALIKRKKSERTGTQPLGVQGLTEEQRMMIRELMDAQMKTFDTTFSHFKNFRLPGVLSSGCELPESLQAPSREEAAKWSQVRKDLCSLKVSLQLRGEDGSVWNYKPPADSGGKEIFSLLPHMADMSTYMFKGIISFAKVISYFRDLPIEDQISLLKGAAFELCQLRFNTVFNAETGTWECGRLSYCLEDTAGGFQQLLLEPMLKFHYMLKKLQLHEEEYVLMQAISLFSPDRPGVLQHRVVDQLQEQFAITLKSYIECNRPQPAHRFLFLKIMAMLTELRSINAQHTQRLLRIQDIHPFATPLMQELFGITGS

[2] = molecular target: T2, CAR (Homo sapiens, UniProt Q14994); test: CAR coactivator recruitment (Lanthascreen); assay type: biochemical; conditions: Table 6; coactivator recruitment (Lanthascreen)
T2 construct: purchased Invitrogen
T2 sequence (Q14994 109-352 limits assumed): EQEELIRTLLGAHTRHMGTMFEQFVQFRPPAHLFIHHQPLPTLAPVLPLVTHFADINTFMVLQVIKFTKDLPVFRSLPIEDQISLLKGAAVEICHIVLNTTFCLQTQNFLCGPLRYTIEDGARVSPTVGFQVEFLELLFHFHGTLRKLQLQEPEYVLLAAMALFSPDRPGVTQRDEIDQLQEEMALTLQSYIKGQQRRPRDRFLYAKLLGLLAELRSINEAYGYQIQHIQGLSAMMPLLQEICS

[3] = system: intestinal bacteria; test: In vitro metabolic stability in human stools culture; assay type: in vitro ADME
Experimental: Homogenized fresh human stools (500 mg) were transferred into sterile vials to which 5 mL of sterilized chopped meat-glucose medium (Scott Lab., Fiskville, R.I.) was added. BAs were then added at a final concentration of 0.05 mM. Vials were incubated at 37° C.; then, at 0, 1, 2, 4, 8 and 24 h after the addition of the BA, the reaction was stopped with 150 μL of 30% KOH. The samples were centrifuged at 3500 rpm for 10 min; from the supernatant the BA were isolated by C-18 solid-phase extraction and analyzed by TLC and HPLC-ES-MS/MS.
Thin-layer chromatography (TLC), utilizing silica gel 0.25 mm thickness plates (Merck, Darmstat, Germany), was employed as the first screening test. The solvent system used for the separation of conjugated BA was composed of propionic acid/isoamyl acetate/water/N-propanol (3:4:1:2, v/v/v/v; solvent I), and that of the unconjugated BA was acetic acid/carbon tetrachloride/isopropyl ether/isoamyl acetate/water/N-propanol/benzene (1:4:6:8:2:2, v/v/v/v/v/v; solvent II).

[4] = molecular target: T3, hFXR (Homo sapiens, UniProt Q96RI1); test: Alphascreen coactivator recruitment assay on FXR
T3 sequence (Q96RI1 262-486 limits assumed): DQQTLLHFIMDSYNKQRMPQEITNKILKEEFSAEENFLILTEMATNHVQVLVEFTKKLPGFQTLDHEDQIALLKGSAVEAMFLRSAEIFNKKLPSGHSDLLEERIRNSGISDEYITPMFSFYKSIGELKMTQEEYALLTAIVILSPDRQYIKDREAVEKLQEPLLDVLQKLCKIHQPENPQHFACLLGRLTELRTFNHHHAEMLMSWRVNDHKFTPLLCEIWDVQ
Experimental: Activity on FXR was assayed by using Alphascreen technology in a coactivator recruitment assay. AlphaScreen is a bead-based chemistry assay used to study biomolecular interactions. Binding of molecules captured on the beads leads to an energy transfer from one bead to the other, ultimately producing a luminescent signal. When the partners interact, chemical energy is transferred from Donor to Acceptor beads and a signal is produced. Upon bile acids stimulation the GST-FXR-LBD interacts with the Src-1 peptide. Anti-GST-coated Acceptor beads were used to capture the GST-fusion FXR-LBD whereas the biotinylated-SRC-1 peptide was captured by the streptavidin Donor beads. Upon illumination at 680 nm chemical energy is transferred from Donor to Acceptor beads across the complex streptavidin-Donor/Src-1-Biotin/GSTFXR-LBD/Anti-GST-Acceptor and a signal is produced. The assay was performed in white, low-volume, 384-well Optiplates (PerkinElmer) using a final volume of 25 μl containing final concentrations of 10 nM of purified GST-tagged FXR-LBD protein, 30 nM biotinylated Src-1 peptide, 20 μg/ml anti-GST acceptor beads acceptor beads and 10 μg/ml of streptavidin donor bead (PerkinElmer). […] After the addition of the detection mix (acceptor and donor beads), the plates were incubated in the dark for 4 h at room temperature and then were read with an Envision microplate analyzer (PerkinElmer). […]

[5] = 1-Octanol/water partition coefficient (shake-flask); conditions: bile acids as ionized species, pH 8
Experimental: The octanol/water partition coefficient was measured for molecules in their ionized form and therefore the carboxy analogues were studied at a relatively high pH (8 to 9) to ensure full ionization of the carboxyl group. The 1-Octanol/water partition coefficient (log P) was evaluated using a conventional shake-flask procedure. […] The aqueous buffer was previously pre-saturated with 1-octanol, 5 ml of 1-octanol pre-saturated with water was then added and the samples were left to equilibrate for 2 weeks under continuous stirring at room temperature. After centrifugation the two phases were carefully separated. […] The flow rate was 150 μal/min and the column was maintained at 45° C.

[6] = molecular target: T4, hTGR5 (Homo sapiens, UniProt Q8TDU6); test: FRET assay (intracellular cAMP) in NCI-H716 cells; assay type: cell-based; design: Human intestinal cell lines (NCI-H716) were plated in 96-well plates; endogenous in cells; host or cells: NCI-H716
T4 sequence (Q8TDU6 1-330): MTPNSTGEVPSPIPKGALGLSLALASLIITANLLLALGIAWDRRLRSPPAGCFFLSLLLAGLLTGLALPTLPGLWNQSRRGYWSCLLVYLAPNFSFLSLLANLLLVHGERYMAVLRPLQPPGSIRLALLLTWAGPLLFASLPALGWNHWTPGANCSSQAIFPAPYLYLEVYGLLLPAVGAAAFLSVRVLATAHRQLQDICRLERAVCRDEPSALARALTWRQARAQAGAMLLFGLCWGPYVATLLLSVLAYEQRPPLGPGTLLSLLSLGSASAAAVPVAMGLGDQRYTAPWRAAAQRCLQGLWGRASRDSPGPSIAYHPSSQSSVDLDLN
Experimental: The receptor binding assay was performed by measuring the level of cyclic AMP (cAMP) using FRET assay. Human intestinal cell lines (NCI-H716) were plated in 96-well plates coated with 0.75 mg/ml Matrigel (BD Biosciences) according to manufacturer's instructions just prior to use, at a density of 12×10^3 cells/well in DMEM supplemented with 10% (v/v) FBS, 100 units/ml penicillin and 100 μg/ml streptomycin sulfate, and cultured for 24 h, which allowed cell adhesion to the bottom of the plate. The cells were washed twice with PBS and medium was exchanged for cAMP assay medium [OPTIMEM containing 0.1% (w/v) BSA and 1 mM 3-isobutyl-1-methylxanthine (IBMX)]. […] The level of intracellular cAMP was determined with Lance kit (PerkinElmer). Litocholic acid was used as control ligand. Z′ factor was used to validate assays. Non linear regression curves, without constraints, were performed by using four parameter equation and GraphPad Prism Software (GraphPad Inc.), to obtain the EC50 values.
After subtracting the average value of the basal (vehicle-treated) condition, values were applied to EC50 and/or efficacy determinations. Calculation of average EC50 and comparison of the EC50 between different compounds were done after transformation to logarithms.

[7] = molecular target: bovine serum albumin (Bos taurus, UniProt P02769); test: Albumin binding by equilibrium dialysis; assay type: in vitro ADME; design: 5% bovine serum albumin-saline solution (pH 7.2); from tissue; host or cells: bovine serum (by the name of the product); conditions: 100 μM BA in 5% bovine serum albumin-saline, pH 7.2
Experimental: The extent of albumin binding was evaluated by equilibrium dialysis at a fixed BA-albumin ratio. Each BA was dissolved at a concentration of 100 μM in 5% bovine serum albumin-saline solution (pH 7.2) and left to stand for 24 h at 25° C. Two milliliters of this solution was dialyzed in cellulose sacs having a molecular weight cut-off of 12,000-14,000 Dalton against 25 ml of saline solution. The system was equilibrated by gently shaking for 72 h at 25° C. BA concentrations of the dialyzed solution (corresponding to the free unbound fraction) and of the starting solution were determined with HPLC-ESI-MS/MS in the same conditions of the previous analysis.
The percentage of albumin binding was calculated from the initial BA concentration and from the unbound concentration in the dialyzed fraction.

bovine serum albumin, sequence (P02769 25-607): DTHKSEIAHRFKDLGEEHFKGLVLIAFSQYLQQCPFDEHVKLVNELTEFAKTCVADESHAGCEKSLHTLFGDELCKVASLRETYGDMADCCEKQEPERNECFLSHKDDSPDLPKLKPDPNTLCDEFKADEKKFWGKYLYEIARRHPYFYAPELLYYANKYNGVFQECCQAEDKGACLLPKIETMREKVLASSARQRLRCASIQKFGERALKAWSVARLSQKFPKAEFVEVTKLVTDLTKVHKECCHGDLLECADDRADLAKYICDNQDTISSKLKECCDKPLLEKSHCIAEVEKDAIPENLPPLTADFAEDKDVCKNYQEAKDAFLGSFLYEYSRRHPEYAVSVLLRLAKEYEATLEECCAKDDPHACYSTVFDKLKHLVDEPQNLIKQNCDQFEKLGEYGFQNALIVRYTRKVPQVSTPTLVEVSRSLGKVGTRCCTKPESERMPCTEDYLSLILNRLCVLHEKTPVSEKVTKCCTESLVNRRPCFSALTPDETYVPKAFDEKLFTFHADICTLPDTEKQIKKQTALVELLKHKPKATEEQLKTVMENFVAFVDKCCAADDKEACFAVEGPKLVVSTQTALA

CC[C@H]1[C@@H](O)[C@@H]2[C@H](CC[C@]3(C)[C@@H]([C@H](C)CCC(=O)O)[C@@H](O)C[C@@H]23)[C@@]2(C)CC[C@@H](O)C[C@@H]12 [Compound 10, 3α,7α,16β-trihydroxy-6α-ethyl-5β-cholan-24-oic acid sodium salt]
IC50 [1]: 64 µM | CAR Activation EC50 [2]: No activity | Compound recovered unmodified in human stool cultures ([3]; after 24 hour incubation, 0.05 mM, 37° C.): more than 85% | Side chain stability to intestinal bacteria ([3]; human stool cultures): very stable for side chain metabolism | EC50 [4]: 12 µM | LogPA-: 1-octanol-water partition coefficient [5]: 1.6 | EC50 ([6]; FRET (cAMP) NCI-H716 hTGR5 EC50, Table 1, NCI-H716 cells): 0.65 µM | EC50 ([6]; TGR5 Activation EC50, Table 6, cAMP level on NCI-H716): 0.6 µM | Albumin Binding [7]: 83%
